According to patent US12723063B2, “GIPR-agonist compounds” (Eli Lilly and Company, priority 2019, dated 2026):
pKi: −log10 of the molar value. *1 amine or outer side, *2 acyl side, *3 side chain or, on linkers, in order; H or OH if unused. Where a SMILES comes first, the peptide text is derived from it. Side-chain parts run from the residue outwards. [ ]: non-standard residue; d: D form. The star is where a group is joined. C18 diacid = O=C(O)CCCCCCCCCCCCCCCCC(=O)*; γGlu = O=C(O)[C@H](CCC(=O)[*:2])N[*:1]; AEEA = NCCOCCOCC(=O)O; Aib = CC(C)(N)C(=O)O

Key:
human GcgR = biological target: T1, human GcgR (Homo sapiens, UniProt P47871); experiment: [125I]-Glucagon binding, SPA with WGA beads, 0.1% bacitracin; details: geometric mean, read-out: hGcgR Ki
T1 construct: expressed in transfected cells; crude membranes
Procedure, shortened: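 SPA competition binding with WGA beads on crude membranes from HEK293 cells stably expressing hGcgR. Buffer: 25 mM HEPES pH 7.4, 2.5 mM CaCl2, 1 mM MgCl2, 0.1% bacitracin, 0.003% Tween-20; 10-point 3-fold dilutions, NSB with 1 μM Gcg.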

human GIPR = biological target: T2, human GIPR (Homo sapiens, UniProt P48546); experiment: [125I]-GIP binding, SPA with WGA beads, 0.1% bacitracin; details: geometric mean, read-out: hGIPR Ki
T2 construct: expressed in transfected cells; crude membranes
T2 sequence (P48546 22-466): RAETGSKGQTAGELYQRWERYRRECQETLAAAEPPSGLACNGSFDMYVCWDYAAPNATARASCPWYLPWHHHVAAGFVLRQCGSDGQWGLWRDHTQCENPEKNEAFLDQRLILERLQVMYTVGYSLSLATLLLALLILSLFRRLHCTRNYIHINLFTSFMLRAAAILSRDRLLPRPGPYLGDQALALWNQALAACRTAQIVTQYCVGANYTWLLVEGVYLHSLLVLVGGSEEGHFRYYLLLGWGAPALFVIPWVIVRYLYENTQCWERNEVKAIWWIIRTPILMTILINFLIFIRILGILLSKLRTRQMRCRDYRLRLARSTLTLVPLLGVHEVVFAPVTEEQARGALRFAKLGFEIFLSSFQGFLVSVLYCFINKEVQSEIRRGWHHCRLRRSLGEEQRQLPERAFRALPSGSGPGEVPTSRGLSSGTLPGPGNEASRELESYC
Procedure, shortened: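 Ki values are geometric means (SEM, n independent days), derived from four-parameter nonlinear regression of IC50. Membranes came from hGIPR-expressing CHO cells.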

human GLP-1R = biological target: T3, human GLP-1R (Homo sapiens, UniProt P43220); experiment: [125I]-GLP-1 binding, SPA with WGA beads, 0.1% bacitracin; details: geometric mean, read-out: hGLP1R Ki
T3 construct: expressed in transfected cells; crude membranes
Procedure, shortened: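 Binding buffer was 25 mM HEPES pH 7.4 with 2.5 mM CaCl2, 1 mM MgCl2, 0.1% (w/v) bacitracin, 0.003% Tween-20 and EDTA-free protease inhibitors. Four-parameter regression gave IC50, converted to Ki (geometric mean, SEM, n independent days).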

T3 sequence (P43220 24-463): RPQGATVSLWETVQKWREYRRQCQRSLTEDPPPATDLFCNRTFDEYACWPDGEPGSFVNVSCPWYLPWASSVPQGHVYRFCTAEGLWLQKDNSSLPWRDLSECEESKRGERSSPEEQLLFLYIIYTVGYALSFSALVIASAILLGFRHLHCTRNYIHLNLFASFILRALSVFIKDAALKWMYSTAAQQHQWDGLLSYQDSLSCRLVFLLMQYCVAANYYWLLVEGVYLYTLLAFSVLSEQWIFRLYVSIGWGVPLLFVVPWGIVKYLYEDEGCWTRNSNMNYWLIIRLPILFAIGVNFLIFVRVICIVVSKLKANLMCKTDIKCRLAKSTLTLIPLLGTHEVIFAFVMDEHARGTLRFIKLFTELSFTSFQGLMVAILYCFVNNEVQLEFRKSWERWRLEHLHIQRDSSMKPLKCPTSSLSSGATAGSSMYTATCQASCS
T1 sequence (P47871 26-477): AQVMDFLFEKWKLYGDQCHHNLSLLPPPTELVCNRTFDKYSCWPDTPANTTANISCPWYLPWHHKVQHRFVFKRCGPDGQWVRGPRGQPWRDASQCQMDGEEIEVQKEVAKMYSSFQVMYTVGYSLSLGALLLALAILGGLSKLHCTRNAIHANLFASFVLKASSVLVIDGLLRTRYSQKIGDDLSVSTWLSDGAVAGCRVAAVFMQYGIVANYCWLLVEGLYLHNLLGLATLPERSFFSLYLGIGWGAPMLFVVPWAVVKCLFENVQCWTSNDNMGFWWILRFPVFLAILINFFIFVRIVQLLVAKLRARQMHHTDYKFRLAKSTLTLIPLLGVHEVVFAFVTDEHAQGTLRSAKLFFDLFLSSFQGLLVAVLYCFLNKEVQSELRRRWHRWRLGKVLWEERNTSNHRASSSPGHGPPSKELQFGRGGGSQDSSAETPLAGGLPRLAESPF

Row | Compound | pKi (human GcgR) | pKi (human GIPR) | pKi (human GLP-1R)
1 | CC[C@H](C)[C@H](NC(=O)[C@H](CO)NC(=O)[C@H](Cc1ccc(O)cc1)NC(=O)[C@H](CC(=O)O)NC(=O)[C@H](CO)NC(=O)[C@@H](NC(=O)[C@H](Cc1ccccc1)NC(=O)[C@@H](NC(=O)CNC(=O)[C@H](CCC(=O)O)NC(=O)C(C)(C)NC(=O)[C@@H](N)Cc1ccc(O)cc1)[C@@H](C)O)[C@@H](C)CC)C(=O)N[C@@H](CC(C)C)C(=O)N[C@@H](CC(C)C)C(=O)N[C@@H](CC(=O)O)C(=O)N[C@@H](CCCCN)C(=O)N[C@@H](CCCCNC(=O)COCCOCCNC(=O)COCCOCCNC(=O)CC[C@H](NC(=O)CCCCCCCCCCCCCCCCC(=O)O)C(=O)O)C(=O)N[C@@H](Cc1c[nH]cn1)C(=O)N[C@@H](CCC(N)=O)C(=O)NC(C)(C)C(=O)N[C@@H](CC(=O)O)C(=O)N[C@@H](Cc1ccccc1)C(=O)N[C@H](C(=O)N[C@@H](CC(N)=O)C(=O)N[C@@H](Cc1ccc(O)cc1)C(=O)N[C@@H](CC(C)C)C(=O)N[C@@H](CC(C)C)C(=O)N[C@@H](C)C(=O)N[C@@H](C)C(=O)NCC(=O)N1CCC[C@H]1C(=O)N[C@@H](CO)C(=O)N[C@@H](CO)C(=O)NCC(=O)N[C@@H](C)C(=O)N1CCC[C@H]1C(=O)N1CCC[C@H]1C(=O)N1CCC[C@H]1C(=O)N[C@@H](CO)C(N)=O)C(C)C [Example 31] (H-Y[Aib]EGTFISDYSILLDKK([AEEA-AEEA-γGlu-C18 diacid])HQ[Aib]DFVNYLLAAGPSSGAPPPS-NH2) | < 6.02 | 10.33 | 6.58
2 | CC[C@H](C)[C@H](NC(=O)[C@H](Cc1ccccc1)NC(=O)[C@@H](NC(=O)CNC(=O)[C@H](CCC(=O)O)NC(=O)C(C)(C)NC(=O)[C@@H](N)Cc1ccc(O)cc1)[C@@H](C)O)C(=O)N[C@@H](CO)C(=O)N[C@@H](CC(=O)O)C(=O)N[C@@H](Cc1ccc(O)cc1)C(=O)N[C@@H](CO)C(=O)N[C@H](C(=O)N[C@@](C)(CC(C)C)C(=O)N[C@@H](CC(C)C)C(=O)N[C@@H](CC(=O)O)C(=O)N[C@@H](CCC(=O)O)C(=O)N[C@@H](CCCCNC(=O)COCCOCCNC(=O)COCCOCCNC(=O)CC[C@H](NC(=O)CCCCCCCCCCCCCCCCCCC(=O)O)C(=O)O)C(=O)N[C@@H](Cc1c[nH]cn1)C(=O)N[C@@H](CCC(N)=O)C(=O)NC(C)(C)C(=O)N[C@@H](CC(=O)O)C(=O)N[C@@H](Cc1ccccc1)C(=O)N[C@H](C(=O)N[C@@H](CCC(=O)O)C(=O)N[C@@H](Cc1ccncc1)C(=O)N[C@@H](CC(C)C)C(=O)N[C@@H](CC(C)C)C(=O)N[C@@H](C)C(=O)N[C@@H](C)C(=O)NCC(=O)N1CCC[C@H]1C(=O)N[C@@H](CO)C(=O)N[C@@H](CO)C(=O)NCC(=O)N[C@@H](C)C(=O)N1CCC[C@H]1C(=O)N1CCC[C@H]1C(=O)N1CCC[C@H]1C(=O)N[C@@H](CO)C(N)=O)C(C)C)[C@@H](C)CC [Example 85] | 6.10 | 10.28 | 6.66
